In patent US20240240224A1, “FLUORESCENT D-TYPE AMINO ACID METABOLISM MARKER-BASED METHOD FOR DETECTING ANTIBACTERIAL DRUG SENSITIVITY TEST” (priority 2020, published 2024):
Values after ≈ are worked out from the molar mass of the structure shown.

Legend:
[1] = system: P. aeruginosa Pa2; test: BMD susceptibility test; type: cell-based, Pseudomonas aeruginosa; conditions: unit assumed
[2] = system: Ec ATCC 25922; test: BMD susceptibility test; type: cell-based, Escherichia coli; conditions: unit assumed
[3] = system: alveolar lavage fluid sample 0204, A. baumannii; test: BMD susceptibility test of patient alveolar lavage fluid; type: cell-based, Acinetobacter baumannii; conditions: unit assumed
[4] = system: E.coli 1113; test: Vitek 2 drug sensitivity test; type: cell-based, Escherichia coli; as to Sensibility: key: S: Drug sensitive; R: Drug resistance
[5] = system: E.coli 1146; test: FDAA metabolic labeling susceptibility test (Cy5-DAA probe, flow cytometry); type: cell-based, Escherichia coli; conditions: Escherichia coli; E.coli 1146; Cy5-DAA probe, 2 hours; read-out: MIC, FDAA
[6] = system: bacteria contained in alveolar lavage fluid; test: Vitek 2 drug sensitivity test of alveolar lavage fluid; type: cell-based; as to Sensibility: key: S: Drug sensitive; R: Drug resistance
[7] = system: Enterococcus faecium EFM26; test: VITEK drug sensitivity test; type: cell-based; conditions: unit assumed
[8] = system: A. baumannii Ab16; test: BMD susceptibility test; type: cell-based, Acinetobacter baumannii; conditions: unit assumed
[9] = system: E. coli Ec13; test: FaAST (FDAA metabolic labeling); type: cell-based, Escherichia coli; conditions: unit assumed
Method in brief: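 Bacteria at OD600=0.05 in CAMHB mixed with antibiotic dilutions plus Cy5-DAA probe at 0.15 mM final, then incubated 2 h in the dark. Cell-wall labeling fluorescence measured by flow cytometry after PBS dilution.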

[10] = system: A. baumannii Ab19; test: FaAST (FDAA metabolic labeling); type: cell-based, Acinetobacter baumannii; conditions: unit assumed
Method in brief: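 Bacteria diluted to OD600=0.05 in CAMHB were exposed to an antibiotic concentration series with Cy5-DAA probe […] for 2 h in the dark. Per-sample fluorescence was read by flow cytometry after PBS dilution. MIC was taken from the antibiotic concentration–fluorescence curve.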

[11] = system: S. aureus Sa22; test: BMD susceptibility test; type: cell-based, Staphylococcus aureus; conditions: unit assumed
[12] = system: alveolar lavage fluid sample 0206, A. baumannii; test: BMD susceptibility test of patient alveolar lavage fluid; type: cell-based, Acinetobacter baumannii; conditions: unit assumed
Excerpt: (§1) The results of antimicrobial susceptibility test of alveolar lavage fluid of seven patients using FDAA and BMD methods are shown in the following table. The drug-resistant bacteria are shown in bold.

[13] = system: alveolar lavage fluid sample 0219, A. baumannii; test: as above; type: cell-based, Acinetobacter baumannii; conditions: unit assumed
Excerpt: as §1

[14] = system: Pseudomonas aeruginosa PAE853; test: FaAST with DAA-Cy5-2 probe; type: cell-based; conditions: unit assumed
Method: (§2) With reference to the flow chart of the rapid detection method of antimicrobial susceptibility test based on FDAA metabolic markers shown in FIG. 3, FDAA is used for the detection of antimicrobial susceptibility test of alveolar lavage fluid. The specific experimental steps are as follows: • 1. Mix bronchoalveolar lavage fluid (BALF, 10 ml) of patients with hospital acquired pneumonia with cation regulated broth medium (CAMHB, 10 ml) of twice the concentration to prepare the bacterial fluid to be tested. • 2. Add 45 μl antibiotic solutions of different concentrations to the 96-well plate separately (see Table 1 for antibiotic concentration gradient settings). • 3. Add 50 μl of the bacterial solution prepared in step 1 to the 96-well plate and mix well. • 4. Add 5 μl of 10 mM Cy5-DAA probe (final concentration 0.15 mM, see FIG. 1 for its structure) into each well, mix well, and then cultivate in dark for 2 hours. • 5. Add 200 μl PBS solution for dilution, and then use flow cytometry to detect the fluorescence intensity of each sample.
(§3) The specific steps are the same as in Example 5. […] The minimum inhibitory concentration of antibiotics was obtained according to the fluorescence signal intensity of flow detection, and the statistical results are shown in Table 7.

[15] = system: Acinetobacter baumannii ABA16; test: FaAST with DAA-Cy5-2 probe; type: cell-based; conditions: unit assumed
Method: as §2, §3

[16] = system: A. baumannii Ab19; test: BMD susceptibility test; type: cell-based, Acinetobacter baumannii; conditions: unit assumed
[17] = system: Pseudomonas aeruginosa PAE2; test: VITEK drug sensitivity test; type: cell-based; conditions: unit assumed
[18] = system: E. faecalis ATCC29212; test: FaAST (FDAA metabolic labeling method); type: cell-based, Enterococcus faecalis; conditions: unit assumed
Method in brief: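 Bacteria at OD600=0.05 in CAMHB exposed to antibiotic concentration gradients with Cy5-DAA probe […], 2 h in the dark. Fluorescence read by flow cytometry after PBS dilution; MIC taken from the curve of fluorescence intensity versus antibiotic concentration.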

C[C@H]1COc2c(N3CCN(C)CC3)c(F)cc3c(=O)c(C(=O)O)cn1c23 [Levofloxacin, levofloxacin]
BMD (MIC) [1]: 0.5 µg/mL | BMD (MIC) [2]: ≤ 0.25 µg/mL | BMD (MIC) [3]: 0.5 µg/mL | MIC, Vitek 2 [4]: > 8 µg/mL | Sensibility [4]: R | MIC [5]: ≥ 16 µg/mL | MIC [6]: ≥ 8 µg/mL | Sensibility [6]: R | MIC, VITEK [7]: ≥ 256 µg/mL | BMD (MIC) [8]: 16 µg/mL | FaAST (MIC) [9]: 4 µg/mL | FaAST (MIC) [10]: 0.5 µg/mL | BMD (MIC) [11]: 32 µg/mL | BMD (MIC) [12]: 32 µg/mL | BMD (MIC) [13]: 32 µg/mL | MIC, FaAST [14]: 0.5 µg/mL (≈ 1.38 µM) | MIC, FaAST [15]: 32 µg/mL (≈ 88.6 µM) | BMD (MIC) [16]: ≤ 0.25 µg/mL | MIC, VITEK [17]: 0.5 µg/mL (≈ 1.38 µM) | FaAST (MIC) [18]: 1 µg/mL
